Measurements as given in patent US12661410B2, “Compounds for targeted degradation of RET” (C4 Therapeutics, Inc., priority 2020, dated 2026).
Positions count from the first letter of the chain named. Where two headings read alike, the source gives them in different places.

Key:
RET(KD: 658-1114 G810R) = biological target: T1, RET(KD: 658-1114 G810R) (Homo sapiens, UniProt P07949, G810R); assay: HiBiT-Degradation, RET G810R degradation assay (Nano-Glo HiBiT Lytic), 293T.165 cells; assay type: cell-based; conditions: for Emax / DC50: 6.0 hours; for Emax: % remaining protein, read-out: 293T.165 RET(KD: 658-1114 G810R) 6.0 hours (Emax); for DC50: read-out: 293T.165 RET(KD: 658-1114 G810R) 6.0 hours (DC50)
T1 construct: 658-1114; expressed in transfected cells; host or cells: 293T.165 (293T cells, generated in-house)
T1 sequence (P07949 658-1114 G810R): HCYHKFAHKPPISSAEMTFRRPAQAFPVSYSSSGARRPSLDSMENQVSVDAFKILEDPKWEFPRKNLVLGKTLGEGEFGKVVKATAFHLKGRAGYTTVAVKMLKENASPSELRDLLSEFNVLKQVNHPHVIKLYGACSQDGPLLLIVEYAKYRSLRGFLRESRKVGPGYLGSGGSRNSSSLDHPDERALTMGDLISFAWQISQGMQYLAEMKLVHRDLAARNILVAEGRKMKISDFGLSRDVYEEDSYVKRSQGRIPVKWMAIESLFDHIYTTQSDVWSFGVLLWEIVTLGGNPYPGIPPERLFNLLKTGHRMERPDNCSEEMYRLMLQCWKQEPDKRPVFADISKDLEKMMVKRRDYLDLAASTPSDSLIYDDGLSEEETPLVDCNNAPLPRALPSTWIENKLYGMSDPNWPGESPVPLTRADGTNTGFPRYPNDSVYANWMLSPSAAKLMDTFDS
Outline: (§1)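 Degradation after 6 h compound exposure (top 10 μM, 11 half-log points, duplicates) measured by Nano-Glo HiBiT lytic luminescence. Cells: 293T.144 carrying wild-type and 293T.165 carrying G810R HiBiT-RET kinase domain; curves yield DC50 and Emax.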

RET (658-1114) = biological target: T2, RET (658-1114) (Homo sapiens, UniProt P07949); assay: HiBiT-Degradation, RET wild-type degradation assay (Nano-Glo HiBiT Lytic), 293T.144 cells; assay type: cell-based; conditions: for Emax / DC50: 6.0 hours; for Emax: read-out: 293T.144 RET (658-1114) 6.0 hours (Emax); for DC50: read-out: 293T.144 RET (658-1114) 6.0 hours (DC50)
T2 construct: 658-1114; expressed in transfected cells; host or cells: 293T.144 (293T cells, generated in-house)
T2 sequence (P07949 658-1114): T1 sequence (P07949 658-1114 G810R) with R153G
Outline: as §1

[1] = half-maximal degradation concentration

Row | SMILES | 293T.165 RET(KD: 658-1114 G810R) 6.0 hours (IP) [nM] (RET(KD: 658-1114 G810R)) | Emax (RET(KD: 658-1114 G810R)) [%] | DC50 (RET(KD: 658-1114 G810R); [1]) [nM] | 293T.144 RET (658-1114) 6.0 hours (IP) [nM] (RET (658-1114)) | Emax (RET (658-1114); % remaining protein) [%] | DC50 (RET (658-1114); [1]) [nM] | 293T.165 RET(KD: 658-1114 G810R) 6.0 hours (Emax) (RET(KD: 658-1114 G810R); HiBiT-Degradation) | 293T.165 RET(KD: 658-1114 G810R) 6.0 hours (IP) [nM] (RET(KD: 658-1114 G810R); HiBiT-Degradation) | DC50 (RET(KD: 658-1114 G810R); HiBiT-Degradation) [nM] | 293T.144 RET (658-1114) 6.0 hours (IP) [nM] (RET (658-1114); HiBiT-Degradation) | DC50 (RET (658-1114); HiBiT-Degradation) [nM] | Emax (RET (658-1114); HiBiT-Degradation) [%]
1 | COc1cc(N2CCN(C3CCC(n4cc(-c5cn6ncc(C#N)c6c(-c6ccc(N7CC8COCC(C7)N8Cc7ccccn7)nc6)n5)cn4)CC3)CC2)c(F)cc1NC1CCC(=O)NC1=O (centres unmarked) [Compound 205, 6-[1-[4-[4-[4-[(2,6-dioxo-3-piperidyl)amino]-2-fluoro-5-methoxy-phenyl]piperazin-1-yl]cyclohexyl]pyrazol-4-yl]-4-[6-[9-(2-pyridylmethyl)-3-oxa-7,9-diazabicyclo[3.3.1]nonan-7-yl]-3-pyridyl]pyrazolo[1,5-a]pyrazine-3-carbonitrile] | +++ (<100 nM = +++) | < 30 | < 100 | ++++ (<50 nM = ++++) | < 30 | < 50 |  |  |  |  |  | 
2 | N#Cc1cnn2cc(-c3cnn(C4CCN(C(=O)CN5CCC(c6ccc(NC7CCC(=O)NC7=O)cc6F)CC5)CC4)c3)cc(-c3ccc(N4CC5CCC(C4)N5Cc4ccccn4)nc3)c12 (centres unmarked) [Compound 62, 6-[1-[1-[2-[4-[4-[(2,6-dioxo-3-piperidyl)amino]-2-fluoro-phenyl]-1-piperidyl]acetyl]-4-piperidyl]pyrazol-4-yl]-4-[6-[8-(2-pyridylmethyl)-3,8-diazabicyclo[3.2.1]octan-3-yl]-3-pyridyl]pyrazolo[1,5-a]pyridine-3-carbonitrile] |  | < 50 | < 100 |  |  |  | +++ (<50% = +++) | ++++ (< 50 nM = ++++) | < 100 | ++++ (< 50 nM = ++++) | < 50 | < 30
3 | N#Cc1cnn2cc(-c3ccc(N4CCN(C(=O)CN5CCC(c6ccc(NC7CCC(=O)NC7=O)cc6)CC5)CC4)cc3)cc(-c3ccc(N4CC5CC(C4)N5Cc4ccccc4)nc3)c12 (centres unmarked) [Compound 22, 4-(6-(6-Benzyl-3,6-diazabicyclo[3.1.1]heptan-3-yl)pyridin-3-yl)-6-(4-(4-(2-(4-(4-((2,6-dioxopiperidin-3-yl)amino)phenyl)piperidin-1-yl)acetyl)piperazin-1-yl)phenyl)pyrazolo[1,5-a]pyridine-3-carbonitrile] |  | < 30 | < 100 |  |  |  | ++++ (< 30% = ++++) | ++++ (< 50 nM = ++++) | < 100 | ++++ (< 50 nM = ++++) | < 50 | < 30
4 | CCC1(C(=O)NC(C)C)CCN(c2ccc(-c3nc(-c4cnn(C5CCN(C(=O)CN6C7CCC6CC(c6ccc(NC8CCC(=O)NC8=O)cc6F)C7)CC5)c4)cn4ncc(C#N)c34)cn2)CC1 (centres unmarked) [Compound 94, 1-[5-[3-cyano-6-[1-[1-[2-[3-[4-[(2,6-dioxo-3-piperidyl)amino]-2-fluoro-phenyl]-8-azabicyclo[3.2.1]octan-8-yl]acetyl]-4-piperidyl]pyrazol-4-yl]pyrazolo[1,5-a]pyrazin-4-yl]-2-pyridyl]-4-ethyl-N-isopropyl-piperidine-4-carboxamide] | ++++ (<50 nM = ++++) | < 30 | < 50 | ++++ (<50 nM = ++++) | < 30 | < 50 |  |  |  |  |  | 
5 | N#Cc1cnn2cc(-c3cnn(C4CCN(C(=O)CN5CCC(c6ccc(NC7CCC(=O)NC7=O)cc6F)CC5)CC4)c3)nc(-c3ccc(N4CCN(Cc5ccccn5)CC4)cc3)c12 (centres unmarked) [Compound 61, 6-[1-[1-[2-[4-[4-[(2,6-dioxo-3-piperidyl)amino]-2-fluoro-phenyl]-1-piperidyl]acetyl]-4-piperidyl]pyrazol-4-yl]-4-[4-[4-(2-pyridylmethyl)piperazin-1-yl]phenyl]pyrazolo[1,5-a]pyrazine-3-carbonitrile] |  | < 50 | < 100 |  |  |  | +++ (<50% = +++) | ++++ (< 50 nM = ++++) | < 100 | ++++ (< 50 nM = ++++) | < 50 | < 30
6 | CCC1(C(=O)NC(C)C)CCN(c2ccc(-c3nc(-c4cnn(C5CCN(C(=O)CN6CCC(c7ccc(NC8CCC(=O)NC8=O)cc7)CC6)CC5)c4)cn4ncc(C#N)c34)cn2)CC1 (centres unmarked) [Compound 31, 1-(5-(3-Cyano-6-(1-(1-(2-(4-(4-((2,6-dioxopiperidin-3-yl)amino)phenyl)piperidin-1-yl)acetyl)piperidin-4-yl)-1H-pyrazol-4-yl)pyrazolo[1,5-a]pyrazin-4-yl)pyridin-2-yl)-4-ethyl-N-isopropylpiperidine-4-carboxamide] |  | < 30 | < 50 |  |  |  | ++++ (< 30% = ++++) | ++++ (< 50 nM = ++++) | < 50 | ++++ (< 50 nM = ++++) | < 50 | < 30

Continued, in another order:

Row | 293T.165 RET(KD: 658-1114 G810R) 6.0 hours (IP) [nM] (RET(KD: 658-1114 G810R)) | Emax (RET(KD: 658-1114 G810R)) [%] | DC50 (RET(KD: 658-1114 G810R); [1]) [nM] | 293T.144 RET (658-1114) 6.0 hours (IP) [nM] (RET (658-1114)) | Emax (RET (658-1114); % remaining protein) [%] | DC50 (RET (658-1114); [1]) [nM] | SMILES | 293T.165 RET(KD: 658-1114 G810R) 6.0 hours (Emax) (RET(KD: 658-1114 G810R); HiBiT-Degradation) | 293T.165 RET(KD: 658-1114 G810R) 6.0 hours (IP) [nM] (RET(KD: 658-1114 G810R); HiBiT-Degradation) | DC50 (RET(KD: 658-1114 G810R); HiBiT-Degradation) [nM] | 293T.144 RET (658-1114) 6.0 hours (IP) [nM] (RET (658-1114); HiBiT-Degradation) | DC50 (RET (658-1114); HiBiT-Degradation) [nM] | Emax (RET (658-1114); HiBiT-Degradation) [%]
7 | ++++ (<50 nM = ++++) | < 30 | < 50 | ++++ (<50 nM = ++++) | < 30 | < 50 | CCC1(C(=O)NC2CCC2)CCN(c2ccc(-c3nc(-c4cnn([C@H]5CC[C@H](N6CCC(c7ccc(N[C@H]8CCC(=O)NC8=O)cc7Cl)CC6)CC5)c4)cn4ncc(C#N)c34)cn2)CC1 (single isomer, unassigned) [Compound 130] |  |  |  |  |  | 
8 | ++++ (<50 nM = ++++) | < 30 | < 50 | ++++ (<50 nM = ++++) | < 30 | < 50 | CCC1(C(=O)NC(C)C)CCN(c2ccc(-c3nc(-c4cnn(C5CCN(C(=O)CC6(O)CCN(c7ccc(NC8CCC(=O)NC8=O)cc7F)CC6)CC5)c4)cn4ncc(C#N)c34)cc2)CC1 (centres unmarked) [Compound 121, 1-(4-(3-Cyano-6-(1-(1-(2-(1-(4-((2,6-dioxopiperidin-3-yl)amino)-2-fluorophenyl)-4-hydroxypiperidin-4-yl)acetyl)piperidin-4-yl)-1H-pyrazol-4-yl)pyrazolo[1,5-a]pyrazin-4-yl)phenyl)-4-ethyl-N-isopropylpiperidine-4-carboxamide] |  |  |  |  |  | 
9 | ++++ (<50 nM = ++++) | < 30 | < 50 | ++++ (<50 nM = ++++) | < 30 | < 50 | CCC1(C(=O)NC2CCC2)CCN(c2ccc(-c3nc(-c4cnn([C@H]5CC[C@H](N6CCC(c7ccc(N[C@H]8CCC(=O)NC8=O)cc7)CC6)CC5)c4)cn4ncc(C#N)c34)cn2)CC1 (single isomer, unassigned) [Compound 127] |  |  |  |  |  | 
10 | ++++ (<50 nM = ++++) | < 30 | < 50 | ++++ (<50 nM = ++++) | < 30 | < 50 | CCC1(C(=O)NC(C)C)CCN(c2ccc(-c3nc(-c4cnn(C5CC6(C5)CN(C(=O)CC5(O)CCN(c7ccc(NC8CCC(=O)NC8=O)cc7F)CC5)C6)c4)cn4ncc(C#N)c34)cn2)CC1 (centres unmarked) [Compound 183, 1-[5-[3-cyano-6-[1-[2-[2-[1-[4-[(2,6-dioxo-3-piperidyl)amino]-2-fluoro-phenyl]-4-hydroxy-4-piperidyl]acetyl]-2-azaspiro[3.3]heptan-6-yl]pyrazol-4-yl]pyrazolo[1,5-a]pyrazin-4-yl]-2-pyridyl]-4-ethyl-N-isopropyl-piperidine-4-carboxamide] |  |  |  |  |  | 
